The supplement of paper PMC12137928
Counter-ions that a name gives are not always drawn.

Tested on: HCT116
Conditions: 72 h
Procedure, shortened: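 HCT116 cells were plated at 250 per well in 1536-well plates and allowed 5 h to attach. CellTiter-Glo luminescence was normalized to vehicle as 0% and positive control as -100%, followed by pattern correction. Four-parameter Hill fits provided IC50 and maximal efficacy.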

Row | IC50 cell viability (ICRF193 0 nM) | IC50 cell viability (ICRF193 200 nM) | SMILES
1 | > 45.8 µM | > 45.8 µM | CN1C2CCCC1CC(NC(=O)c1nn(C)c3ccccc13)C2 (stereo not drawn) [Granisetron (AB-1001)]
2 | > 45.8 µM | > 45.8 µM | Cc1c(F)c(N2CCNC(C)C2)cc2c1c(=O)c(C(=O)O)cn2C1CC1 (stereo not drawn) [Grepafloxacin hydrochloride]
3 | > 45.8 µM | > 45.8 µM | COc1ccccc1OC(=O)Oc1ccccc1OC [Guaiacol carbonate]
4 | > 45.8 µM | > 45.8 µM | COc1ccccc1O [Guaiacol]
5 | > 45.8 µM | > 45.8 µM | Cc1ccc(C(C)C)cc2c(C)ccc1-2 [Guaiazulene]
6 | > 45.8 µM | > 45.8 µM | COc1ccccc1OCC(O)CO (stereo not drawn) [Guaifenesin]
7 | > 45.8 µM | > 45.8 µM | N=C(N)NCC1COC2(CCCCC2)O1 (stereo not drawn) [Guanadrel sulfate]
8 | > 45.8 µM | > 45.8 µM | N=C(N)NCCN1CCCCCCC1 [Guanethidine sulfate]
9 | > 45.8 µM | > 45.8 µM | N=C(N)NC(=O)Cc1c(Cl)cccc1Cl [Guanfacine hydrochloride]
10 | > 45.8 µM | > 45.8 µM | N=C(N)NCCCCCCC(=O)NC(O)C(=O)NCCCCNCCCN (stereo not drawn) [Gusperimus trihydrochloride]
11 | > 45.8 µM | > 45.8 µM | CCCCCCCCCC(=O)OC1(c2ccc(Cl)cc2)CCN(CCCC(=O)c2ccc(F)cc2)CC1 [HALOPERIDOL DECANOATE]
12 | > 45.8 µM | > 45.8 µM | FC(F)(F)C(Cl)Br (stereo not drawn) [HALOTHANE]
13 | > 45.8 µM | > 45.8 µM | CC1(C)S[C@@H]2[C@H](N3C(=O)[C@@H](c4ccccc4)NC3(C)C)C(=O)N2[C@H]1C(=O)O [HETACILLIN POTASSIUM]
14 | > 45.8 µM | > 45.8 µM | C[N+]1(C)[C@@H]2CC[C@H]1C[C@@H](OC(=O)C(O)c1ccccc1)C2 (stereo partly drawn) [HOMATROPINE METHYLBROMIDE]
15 | > 45.8 µM | > 45.8 µM | CCC(=O)O[C@]1(C(=O)COC(C)=O)CC[C@H]2[C@@H]3CCC4=CC(=O)CC[C@]4(C)[C@H]3[C@@H](O)C[C@@]21C [HYDROCORTISONE ACEPONATE]
16 | > 45.8 µM | > 45.8 µM | CC1(C)O[C@@H]2C[C@H]3[C@@H]4CCC5=CC(=O)CC[C@]5(C)[C@@]4(F)[C@@H](O)C[C@]3(C)[C@]2(C(=O)CCl)O1 [Halcinonide]
17 | > 45.8 µM | > 45.8 µM | CCC(=O)O[C@]1(C(=O)CCl)[C@@H](C)C[C@H]2[C@@H]3C[C@H](F)C4=CC(=O)C=C[C@]4(C)[C@@]3(F)[C@@H](O)C[C@@]21C [Halobetasol Propionate]
18 | > 45.8 µM | > 45.8 µM | O=C(CCCN1CCC(O)(c2ccc(Cl)cc2)CC1)c1ccc(F)cc1 [Haloperidol]
19 | > 45.8 µM | > 45.8 µM | CCCCCCCCCCCCCCCC(=O)OC(C)C [Hexadecanoic acid, 1-methylethyl ester]

Row | IC50 cell viability (ICRF193 0 nM) | IC50 cell viability (ICRF193 200 nM) | SMILES
20 | > 45.8 µM | > 45.8 µM | C[N+](C)(CCCCCC[N+](C)(C)C1c2ccccc2-c2ccccc21)C1c2ccccc2-c2ccccc21 [Hexafluorenium dibromide]
21 | > 45.8 µM | > 45.8 µM | O=C(O)CCCCC(=O)O [Hexanedioic acid]
22 | > 45.8 µM | > 45.8 µM | CCCCC(CC)CN1CN(CC(CC)CCCC)CC(C)(N)C1 (stereo not drawn) [Hexetidine]
23 | > 45.8 µM | > 45.8 µM | C[N+]1(C)CCN(CC(O)(c2ccccc2)C2CCCCC2)CC1 (stereo not drawn) [Hexocyclium]
24 | > 45.8 µM | > 45.8 µM | Oc1ccc(C(O)CNCCCCCCNCC(O)c2ccc(O)c(O)c2)cc1O (stereo not drawn) [Hexoprenaline sulfate]
25 | > 45.8 µM | > 45.8 µM | CC(CNC1CCCCC1)OC(=O)c1ccccc1 (stereo not drawn) [Hexylcaine hydrochloride]
26 | > 45.8 µM | > 45.8 µM | O=C(O)CNC(=O)c1ccccc1 [Hippuric acid]
27 | > 45.8 µM | > 45.8 µM | NCCc1c[nH]cn1 [Histamine dihydrochloride]
28 | > 45.8 µM | > 45.8 µM | C/C=C1\[C@H]2C=C(C)C[C@]1(N)c1ccc(=O)[nH]c1C2 [Huperzine A]
29 | > 45.8 µM | > 45.8 µM | NS(=O)(=O)c1cc2c(cc1Cl)NCNS2(=O)=O [Hydrochlorothiazide]
30 | > 45.8 µM | > 45.8 µM | CCN(CC)CC(=O)OCC(=O)[C@@]1(O)CC[C@H]2[C@@H]3CCC4=CC(=O)CC[C@]4(C)[C@H]3[C@@H](O)C[C@@]21C [Hydrocortamate]
31 | > 45.8 µM | > 45.8 µM | CCCC(=O)O[C@]1(C(=O)CO)CC[C@H]2[C@@H]3CCC4=CC(=O)CC[C@]4(C)[C@H]3[C@@H](O)C[C@@]21C [Hydrocortisone 17-butyrate]
32 | > 45.8 µM | > 45.8 µM | C[C@]12CCC(=O)C=C1CC[C@@H]1[C@@H]2[C@@H](O)C[C@@]2(C)[C@H]1CC[C@]2(O)C(=O)COC(=O)CCC(=O)O [Hydrocortisone 21-hemisuccinate sodium salt]
33 | > 45.8 µM | > 45.8 µM | C[C@]12CCC(=O)C=C1CC[C@@H]1[C@@H]2[C@@H](O)C[C@@]2(C)[C@H]1CC[C@]2(O)C(=O)COP(=O)(O)O [Hydrocortisone Sodium Phosphate]
34 | > 45.8 µM | > 45.8 µM | CC(=O)OCC(=O)[C@@]1(O)CC[C@H]2[C@@H]3CCC4=CC(=O)CC[C@]4(C)[C@H]3[C@@H](O)C[C@@]21C [Hydrocortisone acetate]
35 | > 45.8 µM | > 45.8 µM | CCCC(=O)O[C@]1(C(=O)COC(=O)CC)CC[C@H]2[C@@H]3CCC4=CC(=O)CC[C@]4(C)[C@H]3[C@@H](O)C[C@@]21C [Hydrocortisone buteprate]
36 | > 45.8 µM | > 45.8 µM | CCCCC(=O)O[C@]1(C(=O)CO)CC[C@H]2[C@@H]3CCC4=CC(=O)CC[C@]4(C)[C@H]3[C@@H](O)C[C@@]21C [Hydrocortisone valerate]
37 | > 45.8 µM | > 45.8 µM | C[C@]12CCC(=O)C=C1CC[C@@H]1[C@@H]2[C@@H](O)C[C@@]2(C)[C@H]1CC[C@]2(O)C(=O)CO [Hydrocortisone]
38 | > 45.8 µM | > 45.8 µM | NS(=O)(=O)c1cc2c(cc1C(F)(F)F)NCNS2(=O)=O [Hydroflumethiazide]

Row | SMILES | IC50 cell viability (ICRF193 0 nM) | IC50 cell viability (ICRF193 200 nM)
39 | CC(N)Cc1ccc(O)cc1 (stereo not drawn) [HYDROXYAMPHETAMINE HYDROBROMIDE] | > 45.8 µM | > 45.8 µM
40 | CN1[C@@H]2CC[C@H]1C[C@@H](OC(=O)[C@H](CO)c1ccccc1)C2 [HYOSCYAMINE] | > 45.8 µM | > 45.8 µM
41 | O=C(CC1NCCCC1O)Cn1cnc2cc(Br)c(Cl)cc2c1=O (stereo not drawn) [Halofuginone hydrochloride] | > 45.8 µM | > 45.8 µM
42 | Cc1c(Cl)c(=O)oc2cc(OP(=O)(OCCCl)OCCCl)ccc12 [Haloxon] | > 45.8 µM | > 45.8 µM
43 | CN1C(=O)NC(=O)C(C)(C2=CCCCC2)C1=O (stereo not drawn) [Hexobarbital] | > 45.8 µM | > 45.8 µM
44 | COc1c2c(cc3c1OCO3)CCN(C)C2 [Hydrocotarnine hydrobromide] | > 45.8 µM | > 45.8 µM
